Reference: patent US7045532B2 (Millennium Pharmaceuticals, Inc., priority 1999, dated 2006)
Like-named read-outs stand apart in the source and are kept apart here.

Target: T1, ACE-2 (Homo sapiens, UniProt Q9BYF1)
T1 construct: a stop codon inserted after the serine immediately preceding the transmembrane domain; made in house; host or cells: CHO K1 cells (transient transfection, purified from conditioned medium)
Test: ACE-2 Competitive Substrate Assay (ACS Assay)
Assay type: biochemical

[1] = Ki class, compounds tested in 5% DMSO, 12 compound concentrations, Ki=Kiapp/(1+[S]/Km), read-out: Human ACE-2 Activity
[2] = Table 3, very good ACE-2 inhibiting compounds, species not given, read-out: ACE-2 Activity, Ki

T1 sequence (Q9BYF1 18-740 limits assumed): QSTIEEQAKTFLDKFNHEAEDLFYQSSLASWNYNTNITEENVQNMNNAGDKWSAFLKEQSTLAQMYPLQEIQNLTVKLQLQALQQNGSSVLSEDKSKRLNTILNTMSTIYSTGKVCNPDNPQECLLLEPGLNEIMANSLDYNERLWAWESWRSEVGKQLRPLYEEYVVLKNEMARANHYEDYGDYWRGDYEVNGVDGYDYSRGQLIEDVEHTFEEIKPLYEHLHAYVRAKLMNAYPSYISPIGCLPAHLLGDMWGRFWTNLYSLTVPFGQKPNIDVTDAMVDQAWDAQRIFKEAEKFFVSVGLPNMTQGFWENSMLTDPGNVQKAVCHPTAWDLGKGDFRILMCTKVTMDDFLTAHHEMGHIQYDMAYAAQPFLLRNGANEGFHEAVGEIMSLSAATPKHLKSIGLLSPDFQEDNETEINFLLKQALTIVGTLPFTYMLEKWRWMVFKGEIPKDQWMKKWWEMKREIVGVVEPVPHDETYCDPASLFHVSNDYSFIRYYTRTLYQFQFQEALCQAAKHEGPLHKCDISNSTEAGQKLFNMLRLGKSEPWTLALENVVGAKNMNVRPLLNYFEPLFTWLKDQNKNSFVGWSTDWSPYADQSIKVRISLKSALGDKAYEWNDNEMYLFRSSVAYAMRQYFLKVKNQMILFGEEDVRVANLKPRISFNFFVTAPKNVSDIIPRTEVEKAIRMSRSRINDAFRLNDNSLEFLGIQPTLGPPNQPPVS

Row | Structure (SMILES) | Ki [1] [nM] | Ki [2] [nM] | Ki (Ki class, compounds tested in 5% DMSO, 12 concentrations, read-out: Human ACE-2 Activity) [nM]
1 | CC(C)C[C@H](N[C@@H](Cc1ccc(OCc2ccncc2)cc1)C(=O)O)C(=O)O [LV, 2-[1-Carboxy-2-[4-(pyridin4-ylmethoxy)-phenyl]-ethylamino]-4-methyl-pentanoic acid] | < 100 | 50 to 100 | 
2 | C=CCOc1ccc(C[C@H](N[C@@H](CC(C)C)C(=O)O)C(=O)O)cc1 [LW, 2-[2-(4-Allyloxy-phenyl)-1-carboxy-ethylamino]-4-methyl-pentanoic acid] | < 100 | 50 to 100 | 
3 | CC(C)C[C@H](N[C@@H](Cc1ccc(OCc2cccnc2)cc1)C(=O)O)C(=O)O [LX, S,S-2-{1-Carboxy-2-[4-(pyridin-3-ylmethoxy)-phenyl]-ethylamino}-4-methyl pentanoic acid] | 100 to 500 |  | 
4 | Cc1ccc(-c2cccc(C[C@H](N[C@@H](CC(C)C)C(=O)O)C(=O)O)c2)cc1 [LY, (S,S)-2-[1-Carboxy-2-(4′-methyl-biphenyl-3-yl)-ethylamino]-4-methyl-pentanoic acid] | > 500 |  | 
5 | COc1cccc(C(=O)NC[C@H](N[C@@H](CC(C)C)C(=O)O)C(=O)O)c1 [LZ, 2-[1-Carboxy-2-(3-methoxy-benzoylamino)-ethylamino]-4-methyl-pentanoic acid] | 100 to 500 |  | 
6 | C[C@@H](N[C@@H](CCCN)C(=O)O)C(=O)O [M, 5-Amino-2-(1-carboxy-ethylamino)-pentanoicacid] |  |  | > 500
7 | CC(C)C[C@H](N[C@@H](CC(=O)Nc1nc2ccc(Cl)cc2s1)C(=O)O)C(=O)O [MB, (S,S)-2-[1-Carboxy-2-(6-chloro-benzothiazol-2-ylcarbamoyl)-ethylamino]-4-methyl-pentanoic acid] | < 100 | < 50 | 
8 | Cc1cc2nc(NC(=O)C[C@H](N[C@@H](CC(C)C)C(=O)O)C(=O)O)sc2cc1C [MC, (S,S)-2-[1-Carboxy-2-(5,6-dimethyl-benzothiazol-2-ylcarbamoyl)-ethylamino]-4-methyl-pentanoic acid] | > 500 |  | 
9 | CC(C)C[C@H](N[C@@H](CC(=O)Nc1nc2c(Cl)cccc2s1)C(=O)O)C(=O)O [MD, (S,S)-2-[1-Carboxy-2-(4-chloro-benzothiazol-2-ylcarbamoyl)-ethylamino]-4-methyl-pentanoic acid] | < 100 | < 50 | 
10 | CC(C)C[C@H](N[C@@H](Cn1ccn(CCC2CCCCC2)c1=O)C(=O)O)C(=O)O [ME, (S,S)-2-{1-Carboxy-2-[3-(2-cyclohexyl-ethyl)-2-oxo-2,3-dihydro-imidazol-1-yl]-ethylamino}-4-methyl-pentanoic acid] | 100 to 500 |  | 
11 | CC(C)C[C@H](N[C@@H](Cn1ccn([C@H](C)c2ccccc2)c1=O)C(=O)O)C(=O)O [MF, 2-[1-Carboxy-2-[2-oxo-3-(1-phenyl-ethyl)-2,3-dihydro-imidazol-1-yl]-ethylamino]-4-methyl-pentanoic acid] | > 500 |  | 
12 | CC(C)C[C@H](N[C@@H](CC(=O)Nc1nc2cc(Cl)c(Cl)cc2s1)C(=O)O)C(=O)O [MG, (S,S)-2-[1-Carboxy-2-(5,6-dichloro-benzothiazol-2-ylcarbamoyl)-ethylamino]-4-methyl-pentanoic acid] | 100 to 500 |  | 
13 | CC(C)C[C@H](N[C@@H](Cn1ccn(CC2CC2)c1=O)C(=O)O)C(=O)O [MH, 2-[1-Carboxy-2-(3-cyclopropylmethyl-2-oxo-2,3-dihydro-imidazol-1-yl)-ethylamino]-4-methyl-pentanoic acid] | 100 to 500 |  | 
14 | CC(C)C[C@H](N[C@@H](Cc1cccc(-c2cc(Cl)cc(Cl)c2)c1)C(=O)O)C(=O)O [MI, (S,S)-2-[1-Carboxy-2-(3,′5′-dichloro-biphenyl-3-yl)-ethylamino]-4-methyl-pentanoic acid] | 100 to 500 |  | 
15 | CC(C)C[C@H](N[C@@H](Cc1cccc(-c2ccsc2)c1)C(=O)O)C(=O)O [MJ, (S,S)-2-[1-Carboxy-2-(3-thiophen-3-yl-phenyl)-ethylamino]-4-methyl-pentanoic acid] | > 500 |  | 
16 | COc1cc(OC)cc(-c2cccc(C[C@H](N[C@@H](CC(C)C)C(=O)O)C(=O)O)c2)c1 [MK, (S,S)-2-[1-Carboxy-2-(3′,5′-dimethoxy-biphenyl-3-yl)-ethylamino]-4-methyl-pentanoic acid] | > 500 |  | 
17 | COC(=O)[C@H](Cc1ccn(C(=O)OC(C)(C)C)n1)N[C@@H](CC(C)C)C(=O)OCc1ccccc1 [ML, 3-[2-(1-Benzyloxycarbonyl3-methyl-butylamino)-2-methoxycarbonyl-ethyl]-pyrazole-1-carboxylicacid tert-butyl ester] | > 500 |  | 
18 | COC(=O)[C@H](Cc1cncn1Cc1cc(Cl)cc(Cl)c1)N[C@@H](CC(C)C)C(=O)OC [MM, 2-{2-[3-(3,5-Dichloro-benzyl)-3H-imidazol-4-yl]-1-methoxycarbonyl-ethylamino}-4-methyl-pentanoic acidmethyl ester] | < 100 | < 50 | 
19 | CC(C)C[C@H](N[C@@H](Cn1ccn(C2CCCCC2)c1=O)C(=O)O)C(=O)O [MN, 2-[1-Carboxy-2-(3-cyclohexyl-2-oxo-2,3-dihydro-imidazol-1-yl)-ethylamino]-4-methyl-pentanoic acid] | 100 to 500 |  | 

Row | Structure (SMILES) | Ki [1] [nM] | Ki [2] [nM] | Ki (Ki class, compounds tested in 5% DMSO, 12 concentrations, read-out: Human ACE-2 Activity) [nM]
20 | COc1ccc2nc(NC(=O)C[C@H](N[C@@H](CC(C)C)C(=O)O)C(=O)O)sc2c1 [MO, (S,S)-2-[1-Carboxy-2-(6-methoxy-benzothiazol-2-ylcarbamoyl)-ethylamino]-4-methyl-pentanoic acid] | 100 to 500 |  | 
21 | CCOc1ccc2nc(NC(=O)C[C@H](N[C@@H](CC(C)C)C(=O)O)C(=O)O)sc2c1 [MP, (S,S)-2-[1-Carboxy-2-(6-ethoxy-benzothiazol-2-ylcarbamoyl)-ethylamino]-4-methyl-pentanoic acid] | 100 to 500 |  | 
22 | CC(C)C[C@H](N[C@@H](CC(=O)Nc1nc2ccc(F)cc2s1)C(=O)O)C(=O)O [MQ, 2-[1-Carboxy-2-(6-fluoro-benzothiazol-2-ylcarbamoyl)-ethylamino]-4-methyl-pentanoic acid] | < 100 | < 50 | 
23 | CC(C)C[C@H](N[C@@H](CC(=O)Nc1nc2ccc(Br)cc2s1)C(=O)O)C(=O)O [MR, 2-[2-(6-Bromo-benzothiazol-2-ylcarbamoyl]-1-carboxy-ethylamino]-4-methyl-pentanoic acid] | < 100 | < 50 | 
24 | CC(C)C[C@H](N[C@@H](Cn1ccn(-c2cc(F)cc(F)c2)c1=O)C(=O)O)C(=O)O [MS, 2-{1-Carboxy-2-[3-(3,5-difluoro-phenyl)-2-oxo-2,3-dihydro-imidazol-1-yl]-ethylamino}-4-methyl-pentanoic acid] | 100 to 500 |  | 
25 | CC(C)C[C@H](N[C@@H](CNC(=O)c1ccc2ccccc2c1)C(=O)O)C(=O)O [MT, 2-(1-Carboxy-2-[(naphthalene-2-carbonyl)amino]-ethylamino)-4-methyl-pentanoic acid] | > 500 |  | 
26 | CC(C)C[C@H](N[C@@H](CNS(=O)(=O)c1ccc2ccccc2c1)C(=O)O)C(=O)O [MU, 2-[1-Carboxy-2-(naphthalene-2-sulfonylamino)-ethylamino]-4-methyl-pentanoic acid] | > 500 |  | 
27 | CC(C)C[C@H](N[C@@H](Cc1ccnn1Cc1cc(Cl)cc(Cl)c1)C(=O)O)C(=O)O [MV, 2-{1-carboxy-2-[2-(3,5-dichlorobenzyl)-2H-pyrazol-3-yl]-ethylamino}-4-methyl-pentanoic acid] | < 100 | < 50 | 
28 | CC(C)C[C@H](N[C@@H](Cc1cccc(-c2cccc3ccccc23)c1)C(=O)O)C(=O)O [MX, (S,S)-2-[1-Carboxy-2-(3-naphthalen-1-yl-phenyl)-ethylamino]-4-methyl-pentanoic acid] | > 500 |  | 
29 | CCOC(=O)[C@H](Cc1cncn1Cc1cc(Cl)cc(Cl)c1)N[C@@H](CC(C)C)C(=O)O [MY, (S,S) 2-{2-[3-(3,5-Dichloro-benzyl)-3H-imidazol-4-yl]-1-ethoxycarbonyl-ethylamino}-4-methyl-pentanoic acid] | 100 to 500 |  | 
30 | CC(C)C[C@@H](N[C@H](Cc1cncn1Cc1cc(Cl)cc(Cl)c1)C(=O)O)C(=O)O [MZ, (R,R)-2-{1-Carboxy-2-[3-(3,5-dichloro-benzyl)-3H-imidazol-4-yl]-ethylamino}-4-methyl-pentanoic acid] | 100 to 500 |  | 
31 | CC(C)C[C@H](N[C@@H](Cc1cccc(OCc2cc(F)cc(F)c2)c1)C(=O)O)C(=O)O [NA, 2-[1-Carboxy-2-[3-(3,5-difluoro-benzyloxy)-phenyl]-ethylamino]-4-methyl-pentanoic acid] | 100 to 500 |  | 
32 | C=CCOc1cccc(C[C@H](N[C@@H](CC(C)C)C(=O)O)C(=O)O)c1 [NB, S,S-2-[2-(3-Allyloxy-phenyl)-1-carboxy-ethylamino]-4-methyl pentanoic acid] | 100 to 500 |  | 
33 | CC(C)C[C@H](N[C@@H](CN1CCN(c2cc(F)cc(F)c2)C1=O)C(=O)O)C(=O)O [NC, 2-{1-Carboxy-2-[3-(3,5-difluoro-phenyl)-2-oxo-imidazolidin-1-yl]-ethylamino}-4-methyl-pentanoic acid] | > 500 |  | 
34 | CC(C)C[C@H](N[C@@H](CNC(=O)c1cc2cc(Cl)ccc2[nH]1)C(=O)O)C(=O)O [ND, 2-{1-Carboxy-2-[(5-chloro-1H-indole-2-carbonyl)-amino]-ethylamino}-4-methyl-pentanoic acid] | > 500 |  | 
35 | CC(C)C[C@H](N[C@@H](Cc1ccc(-c2ccsc2)cc1)C(=O)O)C(=O)O [NF, (S,S)-2-[1-Carboxy-2-(4-thiophen-3-yl-phenyl)-ethylamino]-4-methyl-pentanoic acid] | < 100 | 50 to 100 | 
36 | CC(C)C[C@H](N[C@@H](Cc1ccc(-c2cc(Cl)cc(Cl)c2)cc1)C(=O)O)C(=O)O [NG, (S,S)-2-[1-Carboxy-2-(3′,5′-dichloro-biphenyl-4-yl)-ethylamino]-4-methyl-pentanoic acid] | < 100 | < 50 | 
37 | Cc1ccc(-c2ccc(C[C@H](N[C@@H](CC(C)C)C(=O)O)C(=O)O)cc2)cc1 [NH, (S,S)-2-[1-Carboxy-2-(4′-methyl-biphenyl-4-yl)-ethylamino]-4-methyl-pentanoic acid] | < 100 | < 50 | 
